Results from ChEMBL document CHEMBL4834482, “Concise solid-phase synthesis enables derivatisation of YEATS domain cyclopeptide inhibitors for improved cellular uptake” (Bioorg Med Chem, 2021).
pIC50, pKd: −log10 of the molar value.

Key:
Protein AF-9 [1] = target: T1, Protein AF-9 (Homo sapiens, UniProt P42568); experiment: Inhibition of AF9 YEATS domain (1 to 138 residues) (unknown origin) assessed as inhibition of probe-1 induced AF9 YEATS domain labelling incubated for 10 mins followed by UV-irradiation for 20 mins by Photo-cross linking based In-gel fluorescence scanning analysis
T1 sequence (P42568 whole entry): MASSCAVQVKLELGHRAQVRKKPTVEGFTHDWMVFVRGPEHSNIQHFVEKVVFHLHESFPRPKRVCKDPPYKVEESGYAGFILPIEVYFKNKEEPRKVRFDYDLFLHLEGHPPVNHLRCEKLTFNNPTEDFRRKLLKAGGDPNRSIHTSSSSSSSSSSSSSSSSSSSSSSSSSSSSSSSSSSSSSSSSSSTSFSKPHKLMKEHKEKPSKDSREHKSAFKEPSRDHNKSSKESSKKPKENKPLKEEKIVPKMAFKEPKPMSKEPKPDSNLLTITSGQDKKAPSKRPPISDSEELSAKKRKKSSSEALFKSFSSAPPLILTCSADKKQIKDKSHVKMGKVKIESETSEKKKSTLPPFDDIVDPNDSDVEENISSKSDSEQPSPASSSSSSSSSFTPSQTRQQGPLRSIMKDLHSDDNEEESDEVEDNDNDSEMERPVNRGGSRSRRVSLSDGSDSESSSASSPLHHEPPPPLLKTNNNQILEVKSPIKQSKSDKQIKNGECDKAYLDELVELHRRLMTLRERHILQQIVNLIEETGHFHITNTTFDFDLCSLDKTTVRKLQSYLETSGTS

Protein AF-9 [2] = target: T1, Protein AF-9; experiment: Binding affinity to AF9 YEATS domain (1 to 138 residues) (unknown origin) by isothermal titration calorimetry

pIC50 (Protein AF-9 [1])	pKd (Protein AF-9 [2])	Compound
5.76	6.10	CC(=O)N[C@@H](Cc1ccc(O)cc1)C(=O)NCC(=O)N[C@@H](CCCNC(=N)N)C(=O)N[C@@H](CCCCN)C(=O)N[C@@H](CCCCN)C(=O)N[C@@H](CCCNC(=N)N)C(=O)N[C@@H](CCCNC(=N)N)C(=O)N[C@@H](CCC(N)=O)C(=O)N[C@@H](CCCNC(=N)N)C(=O)N[C@@H](CCCNC(=N)N)C(=O)N[C@@H](CCCNC(=N)N)C(=O)NCCCC[C@@H]1NC(=O)[C@H]([C@@H](C)O)NC(=O)[C@@H](NC(=O)OCc2ccccc2)CCCCNC(=N)NCCC[C@@H](C(=O)N[C@@H](CCCCNC(=O)c2cnco2)C(N)=O)NC1=O
6.39	6.43	C[C@@H]1NC(=O)[C@H]([C@H](C)O)NC(=O)[C@@H](NC(=O)OCc2ccccc2)CCCCNC(=N)NCCC[C@H](C(=O)N[C@@H](CCCCNC(=O)c2cnco2)C(N)=O)NC1=O
